Measured values taken from PMC5808360, “Neutral Porphyrin Derivative Exerts Anticancer Activity by Targeting Cellular Topoisomerase I (Top1) and Promotes Apoptotic Cell Death without Stabilizing Top1-DNA Cleavage Complexes” (Journal of Medicinal Chemistry, 2017).

What was measured:
[1] = molecular target: T1, Top1-DNA cleavage complexes (Top1cc) (Homo sapiens, UniProt P11387); test: Single turnover equilibrium cleavage assay with 25-mer duplex oligonucleotide; type: biochemical
T1 construct: made in house; host or cells: Sf-9 insect cells (recombinant baculovirus, gift of Prof. James J. Champoux)
T1 sequence (P11387 1-765): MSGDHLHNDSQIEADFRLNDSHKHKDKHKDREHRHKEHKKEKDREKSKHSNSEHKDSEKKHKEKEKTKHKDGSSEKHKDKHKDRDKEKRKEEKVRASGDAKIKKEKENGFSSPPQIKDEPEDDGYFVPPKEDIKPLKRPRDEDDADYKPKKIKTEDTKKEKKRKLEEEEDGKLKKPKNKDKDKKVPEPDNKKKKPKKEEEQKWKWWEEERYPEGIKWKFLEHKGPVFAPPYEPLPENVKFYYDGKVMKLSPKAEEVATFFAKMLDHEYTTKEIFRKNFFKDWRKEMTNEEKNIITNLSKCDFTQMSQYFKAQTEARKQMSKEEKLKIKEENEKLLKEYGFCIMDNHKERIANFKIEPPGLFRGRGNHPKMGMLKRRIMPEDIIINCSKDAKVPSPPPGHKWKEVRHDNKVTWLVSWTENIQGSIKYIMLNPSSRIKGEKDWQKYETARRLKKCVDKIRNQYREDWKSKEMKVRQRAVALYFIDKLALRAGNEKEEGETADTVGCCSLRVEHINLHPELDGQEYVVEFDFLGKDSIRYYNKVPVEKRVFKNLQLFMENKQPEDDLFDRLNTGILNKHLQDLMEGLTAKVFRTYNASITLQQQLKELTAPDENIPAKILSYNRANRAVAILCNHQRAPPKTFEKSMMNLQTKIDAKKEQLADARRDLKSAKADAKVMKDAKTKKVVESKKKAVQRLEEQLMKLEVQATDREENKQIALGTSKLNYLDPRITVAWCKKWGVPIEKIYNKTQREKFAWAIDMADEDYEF
Description: Plasmid DNA cleavage assay was carried out as described previously.[6],[8] For equilibrium cleavage assays, 25-mer duplex of oligonucleotide containing a Top1 binding motif was labeled and annealed as described previously.[13],[36],[38] Samples were analyzed by 12% sequencing gel electrophoresis, dried, and exposed on PhosphorImager screens and imaged with Typhoon FLA 7000 (GE Healthcare, U.K.).

[2] = molecular target: T2, cellular Top1 in MCF7 cells (Homo sapiens, UniProt P11387); test: Western blot of Top1 in whole cell extracts of treated MCF7 cells; type: cell-based; conditions: 10 μM, indicated times
T2 construct: endogenous in cells; host or cells: MCF7 cells
T2 sequence (P11387 2-765 limits assumed): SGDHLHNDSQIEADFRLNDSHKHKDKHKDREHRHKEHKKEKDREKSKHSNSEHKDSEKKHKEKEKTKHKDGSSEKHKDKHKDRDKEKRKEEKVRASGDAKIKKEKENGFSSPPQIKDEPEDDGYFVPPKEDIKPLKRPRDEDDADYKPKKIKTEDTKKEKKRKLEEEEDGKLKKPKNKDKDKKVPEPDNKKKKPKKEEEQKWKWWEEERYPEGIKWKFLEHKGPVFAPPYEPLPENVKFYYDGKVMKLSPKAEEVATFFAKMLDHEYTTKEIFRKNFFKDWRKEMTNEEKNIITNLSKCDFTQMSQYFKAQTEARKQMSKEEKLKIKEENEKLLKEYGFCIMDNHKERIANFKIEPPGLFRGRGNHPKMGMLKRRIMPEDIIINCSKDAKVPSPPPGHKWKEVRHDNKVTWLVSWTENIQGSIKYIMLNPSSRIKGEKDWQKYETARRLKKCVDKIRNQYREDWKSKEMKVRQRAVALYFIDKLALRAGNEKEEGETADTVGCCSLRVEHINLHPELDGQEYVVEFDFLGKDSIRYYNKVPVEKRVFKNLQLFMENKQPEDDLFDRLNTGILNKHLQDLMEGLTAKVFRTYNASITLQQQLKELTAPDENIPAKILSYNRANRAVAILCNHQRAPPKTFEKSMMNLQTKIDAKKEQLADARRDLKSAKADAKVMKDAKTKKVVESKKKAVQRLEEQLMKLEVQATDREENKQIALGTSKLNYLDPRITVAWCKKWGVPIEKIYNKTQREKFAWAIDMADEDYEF
Description: Because compound 8 binds with free Top1 (Figure 3) and inhibits Top1cc formation in live cells (Figure 2E), we examined the impact of compound 8 on endogenous Top1. Cellular lysates were prepared from MCF7 cells treated with compound 8 for indicated times and were analyzed by Western blotting. […] Because proteasome has been implicated for Top1 degradation,[7],[9],[45] we used proteasome specific inhibitor (MG132) to investigate Top1 proteolysis in compound 8 treated cells.
Preparation of whole cell extracts from MCF7 cells and immunoblotting were carried out as described.[6],[40],[41] Immunoreactivity was detected using ECL chemiluminescence reaction (Amersham) under ChemiDoc MP system (Bio-Rad, USA).

[3] = Cell survival (MTT) assay, HEK293; type: cell-based; conditions: human, HEK293 cells (noncancerous embryonic kidney), read-out: IC50 cytotoxicity
Description: Compound 8 was investigated for its cytotoxicity in the cancer cell lines from different tissue origin,[6],[41] as well as in the noncancerous human embryonic kidney cell lines (HEK293) and mouse embryonic fibroblasts (MEFs). […] The MCF7 breast cancer cell lines were most susceptible to compound 8.
(§1) Cell survival was assessed by 3-(4,5-dimethylthiazol-2-yl)-2,5-diphenyltetrazolium bromide (MTT) assay as discussed previously.[6] The percent inhibition of viability for each concentration of the compounds was calculated with respect to the control, and IC50 values were estimated.

[4] = system: MCF7 cells transfected with Top1 or Ctr siRNA; test: Cell survival (MTT) assay in MCF7 cells transfected with Top1 or control siRNA; type: cell-based, human
Description: To further confirm that Top1 is the cellular target for compound 8 mediated cytotoxicity, we have performed cytotoxicity assays in siRNA mediated Top1 knockdown cells (Figure 6G, inset).
as §1
Transfections were performed as described previously.[40] In brief, cells (1.5 × 10^5) were transfected with control siRNA or 40 nM Top1 siRNA (Qiagen) using oligofectamine (Invitrogen) according to the manufacturer’s protocol.

CN(C)c1ccc(-c2c3nc(c(-c4ccc(N(C)C)cc4)c4ccc([nH]4)c(-c4ccc(C(=O)O)cc4)c4nc(c(-c5ccc(C(=O)O)cc5)c5ccc2[nH]5)C=C4)C=C3)cc1 [Compound 8, 5,10-Bis(4-carboxyphenyl)-15,20-bis(4-dimethylaminophenyl)porphyrin]
Stabilization of Top1cc in single turnover equilibrium cleavage assay ([1]; 25-mer duplex oligonucleotide, recombinant Top1 0.2 μM): failed to stabilize Top1cc | Effect on CPT-induced Top1cc with 12-mer cleaved oligonucleotides ([1]; Top1 incubated with CPT before addition of compound): reversed the CPT-induced Top1cc | Top1 signal in Western blot [2]: time dependent depletion of Top1 signal | IC50 [3]: > 10 µM | Cytotoxicity in Top1 knockdown cells compared to Top1 proficient cells [4]: reduced cytotoxicity
